Measured values reported in PubChem BioAssay (NCI).
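Five concentrations, 48 hours, 96-well plates. The concentration for 50% growth inhibition is given as GI50. TGI is the concentration that stops growth completely.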

How the values were obtained:
Experiment in all cases: growth of human tumour cells (NCI), 48 h
[1] = tested on: 786-0 renal
[2] = tested on: A498 renal
[3] = tested on: A549 NSCLC
[4] = tested on: ACHN renal
[5] = tested on: BT-549 breast
[6] = tested on: CAKI-1 renal
[7] = tested on: CCRF-CEM leukemia
[8] = tested on: COLO 205 colon
[9] = tested on: DU-145 prostate
[10] = tested on: EKVX NSCLC
[11] = tested on: HCC-2998 colon
[12] = tested on: HCT-116 colon
[13] = tested on: HCT-15 colon
[14] = tested on: HL-60(TB) leukemia
[15] = tested on: HOP-62 NSCLC
[16] = tested on: HS 578T breast
[17] = tested on: HT29 colon
[18] = tested on: IGROV1 ovarian
[19] = tested on: K-562 leukemia
[20] = tested on: KM12 colon
[21] = tested on: LOX IMVI melanoma
[22] = tested on: M14 melanoma
[23] = tested on: MALME-3M melanoma
[24] = tested on: MCF7 breast
[25] = tested on: MDA-MB-231 breast
[26] = tested on: MDA-MB-435
[27] = tested on: MOLT-4 leukemia
[28] = tested on: NCI-H226 lung
[29] = tested on: NCI-H23 lung
[30] = tested on: NCI-H460 lung
[31] = tested on: NCI-H522 lung
[32] = tested on: NCI/ADR-RES ovarian
[33] = tested on: OVCAR-4 ovarian
[34] = tested on: OVCAR-5 ovarian
[35] = tested on: OVCAR-8 ovarian
[36] = tested on: PC-3 prostate
[37] = tested on: RPMI-8226 leukemia
[38] = tested on: RXF 393 renal
[39] = tested on: SF-268 CNS
[40] = tested on: SF-295 CNS
[41] = tested on: SF-539 CNS
[42] = tested on: SK-MEL-2 melanoma
[43] = tested on: SK-MEL-28 melanoma
[44] = tested on: SK-MEL-5 melanoma
[45] = tested on: SK-OV-3 ovarian
[46] = tested on: SN12C renal
[47] = tested on: SNB-19 CNS
[48] = tested on: SNB-75 CNS
[49] = tested on: SR leukemia
[50] = tested on: SW-620 colon
[51] = tested on: T-47D breast
[52] = tested on: TK-10 renal
[53] = tested on: U251 CNS
[54] = tested on: UACC-257 melanoma
[55] = tested on: UACC-62 melanoma
[56] = tested on: UO-31 renal
[57] = tested on: HOP-92 NSCLC
[58] = tested on: OVCAR-3 ovarian

`O=[N+]([O-])c1ccc(-c2nnc(SCc3ccc(O)c4ncccc34)o2)cc1` was tested, and the GI50 [1] was 0.674 µM, the TGI [1] was > 100 µM and the GI50 [2] was 2.52 µM. The TGI [2] was > 30.4 µM, the GI50 [3] was 0.378 µM and the TGI [3] was > 100 µM. For the same compound, the GI50 [4] was 0.36 µM, the TGI [4] was > 100 µM and the GI50 [5] was 0.237 µM. For the same compound, the TGI [5] was > 100 µM, the GI50 [6] was 0.561 µM and the TGI [6] was > 100 µM. The GI50 [7] was 0.451 µM, the TGI [7] was > 100 µM and the GI50 [8] was 4.11 µM. The TGI [8] was > 84.5 µM, the GI50 [9] was 0.467 µM and the TGI [9] was > 100 µM. The GI50 [10] was 0.746 µM, the TGI [10] was > 100 µM and the GI50 [11] was 0.749 µM. The TGI [11] was > 100 µM, the GI50 [12] was 0.189 µM and the TGI [12] was > 100 µM. The GI50 [13] was 0.333 µM, the TGI [13] was > 100 µM and the GI50 [14] was 0.425 µM. For the same compound, the GI50 [15] was 0.59 µM, the TGI [15] was > 100 µM and the GI50 [16] was 0.417 µM. For the same compound, the TGI [16] was > 100 µM, the GI50 [17] was 4.84 µM and the TGI [17] was > 100 µM. For the same compound, the GI50 [18] was 0.649 µM, the TGI [18] was > 100 µM and the GI50 [19] was 0.363 µM. For the same compound, the TGI [19] was > 100 µM, the GI50 [20] was 0.572 µM and the TGI [20] was > 100 µM. For the same compound, the GI50 [21] was 0.334 µM, the TGI [21] was > 39 µM and the GI50 [22] was 0.455 µM. For the same compound, the TGI [22] was 7.56 µM, the GI50 [23] was 0.569 µM and the TGI [23] was > 100 µM. For the same compound, the GI50 [24] was 0.224 µM, the TGI [24] was > 100 µM and the GI50 [25] was 0.625 µM. For the same compound, the TGI [25] was > 100 µM, the GI50 [26] was 0.331 µM and the TGI [26] was > 100 µM. The GI50 [27] was 0.508 µM, the TGI [27] was > 100 µM and the GI50 [28] was 3.52 µM. For the same compound, the TGI [28] was > 100 µM, the GI50 [29] was 0.407 µM and the TGI [29] was > 100 µM. For the same compound, the GI50 [30] was 0.26 µM, the TGI [30] was > 62.7 µM and the GI50 [31] was 0.381 µM. For the same compound, the TGI [31] was > 100 µM, the GI50 [32] was 0.551 µM and the TGI [32] was > 100 µM. The GI50 [33] was 1.01 µM, the TGI [33] was > 100 µM and the GI50 [34] was 3.71 µM. The TGI [34] was > 100 µM, the GI50 [35] was 0.31 µM and the TGI [35] was > 100 µM. The GI50 [36] was 0.358 µM, the TGI [36] was > 100 µM and the GI50 [37] was 0.402 µM. For the same compound, the TGI [37] was > 100 µM, the GI50 [38] was 0.732 µM and the TGI [38] was > 100 µM. For the same compound, the GI50 [39] was 0.608 µM, the TGI [39] was > 100 µM and the GI50 [40] was 0.315 µM. The TGI [40] was > 100 µM, the GI50 [41] was 0.877 µM and the TGI [41] was > 100 µM. The GI50 [42] was 0.39 µM, the GI50 [43] was 1.12 µM and the TGI [43] was > 100 µM. The GI50 [44] was 0.357 µM, the TGI [44] was > 30.6 µM and the GI50 [45] was 0.379 µM. For the same compound, the TGI [45] was 3.92 µM, the GI50 [46] was 0.326 µM and the TGI [46] was > 100 µM. For the same compound, the GI50 [47] was 0.351 µM, the TGI [47] was > 100 µM and the GI50 [48] was 0.386 µM. The TGI [48] was > 100 µM, the GI50 [49] was 0.424 µM and the TGI [49] was > 100 µM. For the same compound, the GI50 [50] was 0.547 µM, the TGI [50] was > 100 µM and the GI50 [51] was 0.923 µM. The TGI [51] was 69 µM, the GI50 [52] was 0.785 µM and the TGI [52] was > 100 µM. The GI50 [53] was 0.181 µM, the TGI [53] was > 100 µM and the GI50 [54] was 0.511 µM. It also gave a TGI [54] of 27.5 µM, a GI50 [55] of 0.81 µM and a TGI [55] of 12.6 µM. For the same compound, the GI50 [56] was 0.347 µM and the TGI [56] was > 53 µM.
Work on `C=C(C)[C@@H]1CC[C@]2(COC)CC[C@]3(C)[C@H](CC[C@@H]4[C@@]5(C)CCCNC(C)(C)[C@@H]5CC[C@]43C)[C@@H]12` yielded a GI50 [1] of 1.75 µM, a TGI [1] of 3.48 µM and a GI50 [2] of 1.66 µM. The TGI [2] was 3.11 µM, the GI50 [3] was 1.6 µM and the TGI [3] was 3.16 µM. For the same compound, the GI50 [4] was 1.69 µM, the TGI [4] was 3.08 µM and the GI50 [5] was 1.75 µM. The TGI [5] was 3.21 µM, the GI50 [6] was 1.59 µM and the TGI [6] was 3.07 µM. For the same compound, the GI50 [7] was 1.24 µM, the TGI [7] was 2.99 µM and the GI50 [8] was 1.49 µM. The TGI [8] was 3.22 µM, the GI50 [9] was 1.77 µM and the TGI [9] was 3.21 µM. It also gave a GI50 [10] of 1.63 µM, a TGI [10] of 3.14 µM and a GI50 [11] of 1.26 µM. The TGI [11] was 2.67 µM, the GI50 [12] was 1.13 µM and the TGI [12] was 2.59 µM. It also gave a GI50 [13] of 1.43 µM, a TGI [13] of 2.92 µM and a GI50 [14] of 1.33 µM. It also gave a TGI [14] of 3.51 µM, a GI50 [15] of 1.95 µM and a TGI [15] of 3.9 µM. The GI50 [57] was 1.15 µM, the TGI [57] was 2.47 µM and the GI50 [16] was 2.53 µM. It also gave a TGI [16] of 5.57 µM, a GI50 [17] of 0.562 µM and a TGI [17] of 2.09 µM. The GI50 [18] was 1.56 µM, the TGI [18] was 3.01 µM and the GI50 [19] was 0.323 µM. It also gave a TGI [19] of 1.66 µM, a GI50 [20] of 1.82 µM and a TGI [20] of 3.65 µM. For the same compound, the GI50 [22] was 1.63 µM, the TGI [22] was 3.34 µM and the GI50 [23] was 1.42 µM. It also gave a TGI [23] of 3.07 µM, a GI50 [24] of 0.301 µM and a TGI [24] of 2.24 µM. For the same compound, the GI50 [25] was 1.8 µM, the TGI [25] was 3.38 µM and the GI50 [26] was 1.61 µM. The TGI [26] was 3.09 µM, the GI50 [27] was 1.25 µM and the TGI [27] was 3.49 µM. The GI50 [28] was 1.93 µM, the TGI [28] was 3.93 µM and the GI50 [30] was 1.64 µM. For the same compound, the TGI [30] was 3.5 µM, the GI50 [31] was 1.73 µM and the TGI [31] was 3.42 µM. It also gave a GI50 [32] of 1.68 µM, a TGI [32] of 3.4 µM and a GI50 [58] of 1.9 µM. For the same compound, the TGI [58] was 3.73 µM, the GI50 [33] was 1.54 µM and the TGI [33] was 3 µM. The GI50 [34] was 1.66 µM, the TGI [34] was 3.11 µM and the GI50 [35] was 1.91 µM. It also gave a TGI [35] of 4 µM, a GI50 [36] of 1.26 µM and a TGI [36] of 2.52 µM. For the same compound, the GI50 [37] was 1.17 µM, the TGI [37] was 3.43 µM and the GI50 [38] was 1.55 µM. It also gave a TGI [38] of 2.94 µM, a GI50 [39] of 1.95 µM and a TGI [39] of 3.85 µM. The GI50 [40] was 1.78 µM, the TGI [40] was 3.24 µM and the GI50 [41] was 1.57 µM. The TGI [41] was 3.02 µM, the GI50 [42] was 1.84 µM and the TGI [42] was 3.52 µM. It also gave a GI50 [43] of 1.62 µM, a TGI [43] of 2.99 µM and a GI50 [44] of 1.59 µM. The TGI [44] was 3 µM, the GI50 [45] was 1.79 µM and the TGI [45] was 3.32 µM. It also gave a GI50 [46] of 1.57 µM, a TGI [46] of 3.09 µM and a GI50 [47] of 1.71 µM. It also gave a TGI [47] of 3.13 µM, a GI50 [48] of 1.75 µM and a TGI [48] of 3.92 µM. It also gave a GI50 [49] of 0.481 µM, a TGI [49] of 2.51 µM and a GI50 [50] of 1.77 µM. The TGI [50] was 3.71 µM, the GI50 [51] was 1.18 µM and the TGI [51] was 2.99 µM. It also gave a GI50 [52] of 1.91 µM, a TGI [52] of 3.52 µM and a GI50 [53] of 1.55 µM. The TGI [53] was 3.18 µM, the GI50 [54] was 1.93 µM and the TGI [54] was 3.76 µM. It also gave a GI50 [55] of 1.68 µM, a TGI [55] of 3.11 µM and a GI50 [56] of 1.45 µM. It also gave a TGI [56] of 2.78 µM.
